Assay results taken from ChEMBL document CHEMBL2417435, “The discovery of potent blockers of the canonical transient receptor channels, TRPC3 and TRPC6, based on an anilino-thiazole pharmacophore” (Bioorg Med Chem Lett, 2013).
Blank lines part the entries; values can stand above or below the compound they belong to. The source made the active and inactive calls. No cut-off for these calls is given here.

Experiments:
[1] = target: T1, Short transient receptor potential channel 3 (Homo sapiens, UniProt Q13507); experiment: Inhibition of human recombinant TRPC3 expressed in HEK293-MSRII cells assessed as carbachol-stimulated Ca2+/Na+ influx after 10 mins by FLIPR assay; format: cell-based
T1 sequence (Q13507 whole entry): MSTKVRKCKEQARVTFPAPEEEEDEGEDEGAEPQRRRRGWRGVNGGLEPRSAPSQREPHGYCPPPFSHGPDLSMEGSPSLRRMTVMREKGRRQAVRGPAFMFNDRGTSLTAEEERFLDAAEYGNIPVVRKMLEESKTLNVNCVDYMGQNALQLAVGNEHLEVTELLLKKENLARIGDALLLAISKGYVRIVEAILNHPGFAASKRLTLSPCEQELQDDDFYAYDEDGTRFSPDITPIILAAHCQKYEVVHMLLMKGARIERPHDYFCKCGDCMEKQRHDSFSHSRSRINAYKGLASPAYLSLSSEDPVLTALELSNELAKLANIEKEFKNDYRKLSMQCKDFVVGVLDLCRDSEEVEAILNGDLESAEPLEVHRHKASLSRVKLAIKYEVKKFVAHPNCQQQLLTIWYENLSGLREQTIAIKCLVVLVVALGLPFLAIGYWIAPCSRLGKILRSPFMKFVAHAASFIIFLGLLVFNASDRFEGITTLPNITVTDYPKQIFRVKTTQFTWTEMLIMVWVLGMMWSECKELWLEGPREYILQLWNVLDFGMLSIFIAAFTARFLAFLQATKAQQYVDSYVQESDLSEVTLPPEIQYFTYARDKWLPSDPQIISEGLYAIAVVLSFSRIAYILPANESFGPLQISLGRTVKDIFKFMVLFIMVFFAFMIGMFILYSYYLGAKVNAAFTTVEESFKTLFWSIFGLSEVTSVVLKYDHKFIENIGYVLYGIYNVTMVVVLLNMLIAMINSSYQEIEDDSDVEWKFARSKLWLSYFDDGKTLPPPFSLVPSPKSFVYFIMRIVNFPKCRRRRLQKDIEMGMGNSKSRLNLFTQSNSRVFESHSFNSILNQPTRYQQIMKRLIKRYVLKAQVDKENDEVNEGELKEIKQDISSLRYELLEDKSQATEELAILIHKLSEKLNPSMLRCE

[2] = target: T2, Short transient receptor potential channel 6 (Homo sapiens, UniProt Q9Y210); experiment: Inhibition of human recombinant TRPC6 expressed in HEK293-MSRII cells assessed as carbachol-stimulated Ca2+/Na+ influx after 10 mins by FLIPR assay; format: cell-based
T2 sequence (Q9Y210 whole entry): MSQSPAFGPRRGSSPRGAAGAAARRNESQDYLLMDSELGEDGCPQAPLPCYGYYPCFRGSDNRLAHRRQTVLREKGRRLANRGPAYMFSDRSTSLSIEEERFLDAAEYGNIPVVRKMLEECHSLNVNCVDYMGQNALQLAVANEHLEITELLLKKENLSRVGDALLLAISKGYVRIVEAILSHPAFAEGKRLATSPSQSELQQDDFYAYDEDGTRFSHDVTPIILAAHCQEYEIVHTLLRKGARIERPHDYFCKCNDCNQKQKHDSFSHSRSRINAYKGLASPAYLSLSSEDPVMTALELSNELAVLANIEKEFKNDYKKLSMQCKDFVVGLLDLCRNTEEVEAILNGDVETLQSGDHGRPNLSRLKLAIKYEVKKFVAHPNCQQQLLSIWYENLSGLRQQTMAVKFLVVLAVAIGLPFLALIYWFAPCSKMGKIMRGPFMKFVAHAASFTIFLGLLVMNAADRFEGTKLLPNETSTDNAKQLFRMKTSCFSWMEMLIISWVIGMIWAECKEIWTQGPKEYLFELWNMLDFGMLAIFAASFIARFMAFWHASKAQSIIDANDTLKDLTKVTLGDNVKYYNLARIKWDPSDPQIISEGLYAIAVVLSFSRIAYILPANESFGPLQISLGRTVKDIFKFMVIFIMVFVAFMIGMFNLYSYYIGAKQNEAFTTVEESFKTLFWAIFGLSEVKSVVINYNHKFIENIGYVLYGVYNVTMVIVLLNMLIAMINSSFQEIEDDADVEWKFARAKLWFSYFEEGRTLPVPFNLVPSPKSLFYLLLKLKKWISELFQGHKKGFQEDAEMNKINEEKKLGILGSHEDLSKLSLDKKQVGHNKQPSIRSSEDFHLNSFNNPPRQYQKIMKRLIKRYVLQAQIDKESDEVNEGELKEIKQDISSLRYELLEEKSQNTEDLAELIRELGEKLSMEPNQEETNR

[3] = Cmax in rat at 0.92 mg/kg, iv; format: ADME, organism-based; design: dose 0.92 mg/kg, route intravenous; conditions: in vivo
Rattus norvegicus [4] = experiment: Volume of distribution at steady state in rat at 0.92 mg/kg, iv; format: ADME, organism-based; design: dose 0.92 mg/kg, route intravenous; conditions: in vivo
Rattus norvegicus [5] = experiment: Dose normalized AUC in rat at 0.92 mg/kg, iv; format: ADME, organism-based; design: dose 0.92 mg/kg, route intravenous; conditions: in vivo
[6] = Oral bioavailability in rat at 0.92 mg/kg; format: ADME, organism-based; conditions: in vivo
Rattus norvegicus [7] = experiment: Mean residence time in rat at 0.92 mg/kg, iv; format: ADME, organism-based; design: dose 0.92 mg/kg, route intravenous; conditions: in vivo
[8] = target: T3, Short transient receptor potential channel 6 (Homo sapiens) (UniProt Q9Y210); experiment: Inhibition of human recombinant TRPC6 expressed in HEK293 cells assessed as 1-oleoyl-2-acetyl-glycerol-stimulated current at 0.01 to 0.03 uM by whole cell electrophysiology assay; format: cell-based
T3 sequence (whole entry): T2 sequence (Q9Y210 whole entry)

[9] = target: T4, Short transient receptor potential channel 3 (Homo sapiens) (UniProt Q13507); experiment: Inhibition of human recombinant TRPC3 expressed in HEK293 cells assessed as 1-oleoyl-2-acetyl-glycerol-stimulated current at 0.01 to 0.03 uM by whole cell electrophysiology assay; format: cell-based
T4 sequence (whole entry): T1 sequence (Q13507 whole entry)

[10] = Oral bioavailability in rat at 0.86 mg/kg; format: ADME, organism-based; conditions: in vivo
[11] = Clearance in rat at 0.86 mg/kg, iv; format: ADME, organism-based; design: dose 0.86 mg/kg, route intravenous; conditions: in vivo
[12] = Cmax in rat at 0.86 mg/kg, iv; format: ADME, organism-based; design: dose 0.86 mg/kg, route intravenous; conditions: in vivo
[13] = Mean residence time in rat at 0.86 mg/kg, iv; format: ADME, organism-based; design: dose 0.86 mg/kg, route intravenous; conditions: in vivo
Rattus norvegicus [14] = experiment: Dose normalized AUC in rat at 0.86 mg/kg, iv; format: ADME, organism-based; design: dose 0.86 mg/kg, route intravenous; conditions: in vivo
[15] = target: Transient receptor potential cation channel subfamily V member 4 (Homo sapiens, UniProt Q9HBA0); experiment: Inhibition of TRPV4 (unknown origin) by FLIPR assay
Chain of Transient receptor potential cation channel subfamily V member 4 (Q9HBA0 whole entry): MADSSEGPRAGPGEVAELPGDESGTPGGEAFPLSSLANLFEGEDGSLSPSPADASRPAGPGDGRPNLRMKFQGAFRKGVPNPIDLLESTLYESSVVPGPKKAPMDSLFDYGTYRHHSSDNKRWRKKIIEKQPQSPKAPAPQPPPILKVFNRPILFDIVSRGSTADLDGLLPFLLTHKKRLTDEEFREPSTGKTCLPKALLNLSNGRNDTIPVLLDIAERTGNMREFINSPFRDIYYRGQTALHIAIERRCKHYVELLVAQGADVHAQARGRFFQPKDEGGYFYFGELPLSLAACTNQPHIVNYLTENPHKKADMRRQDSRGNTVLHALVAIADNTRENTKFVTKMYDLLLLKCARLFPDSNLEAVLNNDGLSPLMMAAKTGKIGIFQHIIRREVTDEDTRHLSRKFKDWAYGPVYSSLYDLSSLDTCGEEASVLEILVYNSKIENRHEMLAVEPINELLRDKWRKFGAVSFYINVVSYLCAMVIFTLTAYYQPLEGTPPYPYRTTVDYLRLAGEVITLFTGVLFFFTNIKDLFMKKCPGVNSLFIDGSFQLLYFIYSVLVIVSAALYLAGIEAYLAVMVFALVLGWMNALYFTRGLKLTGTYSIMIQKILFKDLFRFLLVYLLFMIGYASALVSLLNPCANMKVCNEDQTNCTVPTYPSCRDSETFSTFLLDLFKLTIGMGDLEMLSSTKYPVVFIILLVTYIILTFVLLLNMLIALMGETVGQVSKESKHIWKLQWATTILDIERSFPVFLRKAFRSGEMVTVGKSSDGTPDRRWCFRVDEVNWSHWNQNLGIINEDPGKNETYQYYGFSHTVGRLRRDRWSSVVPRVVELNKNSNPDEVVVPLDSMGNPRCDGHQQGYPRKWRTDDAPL

[16] = target: Transient receptor potential cation channel subfamily V member 1 (Homo sapiens, UniProt Q8NER1); experiment: Inhibition of TRPV1 (unknown origin) by FLIPR assay
Chain of Transient receptor potential cation channel subfamily V member 1 (Q8NER1 whole entry): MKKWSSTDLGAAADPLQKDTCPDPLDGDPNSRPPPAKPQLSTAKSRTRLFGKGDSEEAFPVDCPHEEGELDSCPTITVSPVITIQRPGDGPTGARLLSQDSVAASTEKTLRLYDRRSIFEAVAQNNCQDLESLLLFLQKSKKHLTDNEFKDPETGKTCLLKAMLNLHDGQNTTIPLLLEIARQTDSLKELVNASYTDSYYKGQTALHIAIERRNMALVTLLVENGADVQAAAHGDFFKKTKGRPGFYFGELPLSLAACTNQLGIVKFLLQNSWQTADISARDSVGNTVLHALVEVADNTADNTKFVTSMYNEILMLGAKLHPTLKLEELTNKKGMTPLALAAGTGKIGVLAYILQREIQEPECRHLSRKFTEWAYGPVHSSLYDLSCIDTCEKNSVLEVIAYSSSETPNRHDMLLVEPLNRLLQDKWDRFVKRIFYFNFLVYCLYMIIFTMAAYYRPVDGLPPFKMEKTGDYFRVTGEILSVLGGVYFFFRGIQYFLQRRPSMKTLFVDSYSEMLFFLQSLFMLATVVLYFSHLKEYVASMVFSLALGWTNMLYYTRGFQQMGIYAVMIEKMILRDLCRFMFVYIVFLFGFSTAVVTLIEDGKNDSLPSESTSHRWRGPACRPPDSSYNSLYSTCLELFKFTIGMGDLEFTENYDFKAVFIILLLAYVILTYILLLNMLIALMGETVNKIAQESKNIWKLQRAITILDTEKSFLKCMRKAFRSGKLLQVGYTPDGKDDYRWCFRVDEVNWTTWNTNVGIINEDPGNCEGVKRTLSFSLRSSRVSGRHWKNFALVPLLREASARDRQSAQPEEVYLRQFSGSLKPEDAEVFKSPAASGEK

[17] = Oral bioavailability in rat at 0.82 mg/kg; format: ADME, organism-based; conditions: in vivo
Rattus norvegicus [18] = experiment: Dose normalized AUC in rat at 0.82 mg/kg, iv; format: ADME, organism-based; design: dose 0.82 mg/kg, route intravenous; conditions: in vivo
[19] = target: Voltage-dependent L-type calcium channel subunit alpha-1C (Homo sapiens, UniProt Q13936); experiment: Inhibition of CaV1.2 channel (unknown origin) by patch express-based electrophysiology assay
[20] = Cmax in rat at 0.82 mg/kg, iv; format: ADME, organism-based; design: dose 0.82 mg/kg, route intravenous; conditions: in vivo
[21] = target: Transient receptor potential cation channel subfamily A member 1 (Homo sapiens, UniProt O75762); experiment: Inhibition of TRPA1 (unknown origin) by FLIPR assay
Chain of Transient receptor potential cation channel subfamily A member 1 (O75762 whole entry): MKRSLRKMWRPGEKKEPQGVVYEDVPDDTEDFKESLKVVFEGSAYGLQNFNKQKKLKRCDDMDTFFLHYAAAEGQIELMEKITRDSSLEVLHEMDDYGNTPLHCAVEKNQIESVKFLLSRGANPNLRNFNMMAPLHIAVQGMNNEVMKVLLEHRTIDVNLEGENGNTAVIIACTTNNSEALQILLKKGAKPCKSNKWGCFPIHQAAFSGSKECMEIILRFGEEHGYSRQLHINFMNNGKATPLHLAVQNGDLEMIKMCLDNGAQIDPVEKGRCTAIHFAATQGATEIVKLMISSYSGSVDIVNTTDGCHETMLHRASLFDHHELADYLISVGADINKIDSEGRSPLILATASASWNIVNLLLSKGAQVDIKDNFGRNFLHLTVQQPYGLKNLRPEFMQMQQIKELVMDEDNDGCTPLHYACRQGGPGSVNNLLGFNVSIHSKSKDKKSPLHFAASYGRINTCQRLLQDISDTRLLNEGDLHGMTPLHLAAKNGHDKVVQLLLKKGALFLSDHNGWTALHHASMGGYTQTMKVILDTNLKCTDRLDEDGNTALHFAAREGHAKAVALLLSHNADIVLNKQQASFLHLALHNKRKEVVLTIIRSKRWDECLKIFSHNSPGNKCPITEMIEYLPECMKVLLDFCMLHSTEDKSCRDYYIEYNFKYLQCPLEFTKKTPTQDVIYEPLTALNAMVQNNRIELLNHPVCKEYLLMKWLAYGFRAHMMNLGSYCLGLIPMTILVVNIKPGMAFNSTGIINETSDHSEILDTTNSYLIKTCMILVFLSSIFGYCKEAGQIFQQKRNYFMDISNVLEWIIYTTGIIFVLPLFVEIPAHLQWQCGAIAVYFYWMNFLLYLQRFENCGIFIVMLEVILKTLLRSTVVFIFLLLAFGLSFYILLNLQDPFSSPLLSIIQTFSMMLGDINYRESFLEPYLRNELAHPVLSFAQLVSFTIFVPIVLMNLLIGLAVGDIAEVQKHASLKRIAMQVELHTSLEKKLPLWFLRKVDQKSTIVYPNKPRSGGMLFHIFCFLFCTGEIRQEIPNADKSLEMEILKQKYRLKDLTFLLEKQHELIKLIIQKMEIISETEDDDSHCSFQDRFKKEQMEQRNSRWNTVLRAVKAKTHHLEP

[22] = target: Sodium channel protein type 5 subunit alpha (Homo sapiens, UniProt Q14524); experiment: Inhibition of NaV1.5 channel (unknown origin) by patch express-based electrophysiology assay
Chain of Sodium channel protein type 5 subunit alpha (Q14524 whole entry): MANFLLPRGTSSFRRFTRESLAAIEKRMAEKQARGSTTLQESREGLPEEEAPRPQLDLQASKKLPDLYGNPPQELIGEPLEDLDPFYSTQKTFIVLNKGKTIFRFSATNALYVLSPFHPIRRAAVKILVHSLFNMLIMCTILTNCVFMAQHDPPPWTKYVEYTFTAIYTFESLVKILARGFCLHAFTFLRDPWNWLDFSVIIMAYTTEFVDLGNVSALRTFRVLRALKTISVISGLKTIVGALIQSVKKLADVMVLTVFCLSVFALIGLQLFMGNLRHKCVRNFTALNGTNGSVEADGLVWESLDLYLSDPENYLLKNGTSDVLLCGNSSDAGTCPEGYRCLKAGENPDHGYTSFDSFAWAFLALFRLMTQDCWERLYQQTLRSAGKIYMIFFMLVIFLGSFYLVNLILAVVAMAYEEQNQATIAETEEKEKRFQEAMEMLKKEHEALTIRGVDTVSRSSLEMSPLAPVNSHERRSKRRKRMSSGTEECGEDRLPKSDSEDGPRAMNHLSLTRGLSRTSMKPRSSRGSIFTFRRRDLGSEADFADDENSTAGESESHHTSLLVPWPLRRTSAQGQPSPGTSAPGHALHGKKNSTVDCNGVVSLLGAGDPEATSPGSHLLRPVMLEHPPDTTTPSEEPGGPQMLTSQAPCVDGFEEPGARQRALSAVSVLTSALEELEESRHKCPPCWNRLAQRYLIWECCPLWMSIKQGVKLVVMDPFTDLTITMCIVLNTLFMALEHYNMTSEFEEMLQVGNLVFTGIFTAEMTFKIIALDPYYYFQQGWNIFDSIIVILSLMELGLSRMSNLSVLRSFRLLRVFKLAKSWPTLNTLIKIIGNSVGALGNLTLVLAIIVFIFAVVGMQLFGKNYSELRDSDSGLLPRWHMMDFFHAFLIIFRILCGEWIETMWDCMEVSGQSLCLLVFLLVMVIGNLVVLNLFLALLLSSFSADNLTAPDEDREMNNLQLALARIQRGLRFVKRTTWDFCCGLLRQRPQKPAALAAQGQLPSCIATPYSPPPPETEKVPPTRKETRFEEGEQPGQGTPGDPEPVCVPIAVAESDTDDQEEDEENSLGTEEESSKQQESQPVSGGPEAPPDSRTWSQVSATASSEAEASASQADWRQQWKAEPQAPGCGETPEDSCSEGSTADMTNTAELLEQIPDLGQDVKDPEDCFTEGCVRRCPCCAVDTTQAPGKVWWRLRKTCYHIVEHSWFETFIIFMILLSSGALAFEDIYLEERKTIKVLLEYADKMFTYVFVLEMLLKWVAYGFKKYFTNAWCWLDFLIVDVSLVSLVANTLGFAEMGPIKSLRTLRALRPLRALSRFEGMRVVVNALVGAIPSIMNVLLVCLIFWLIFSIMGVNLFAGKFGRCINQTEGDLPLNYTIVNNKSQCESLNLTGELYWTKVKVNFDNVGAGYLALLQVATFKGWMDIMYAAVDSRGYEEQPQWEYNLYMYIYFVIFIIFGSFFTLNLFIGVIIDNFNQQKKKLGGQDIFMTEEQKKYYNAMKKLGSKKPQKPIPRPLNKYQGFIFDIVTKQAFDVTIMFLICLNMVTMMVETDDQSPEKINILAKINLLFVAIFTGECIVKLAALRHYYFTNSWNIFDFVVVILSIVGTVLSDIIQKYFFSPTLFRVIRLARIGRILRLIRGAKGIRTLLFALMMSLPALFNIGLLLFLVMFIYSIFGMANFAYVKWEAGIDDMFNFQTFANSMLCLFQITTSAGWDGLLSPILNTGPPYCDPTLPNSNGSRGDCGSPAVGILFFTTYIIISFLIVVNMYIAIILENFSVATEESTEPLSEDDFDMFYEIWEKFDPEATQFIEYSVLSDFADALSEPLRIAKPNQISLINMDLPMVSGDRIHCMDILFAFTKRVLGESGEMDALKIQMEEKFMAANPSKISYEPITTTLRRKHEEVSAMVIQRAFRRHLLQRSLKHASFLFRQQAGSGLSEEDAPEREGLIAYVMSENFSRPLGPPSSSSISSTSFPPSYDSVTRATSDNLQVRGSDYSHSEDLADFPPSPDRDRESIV

[23] = Mean residence time in rat at 0.82 mg/kg, iv; format: ADME, organism-based; design: dose 0.82 mg/kg, route intravenous; conditions: in vivo
[24] = Clearance in rat at 0.82 mg/kg, iv; format: ADME, organism-based; design: dose 0.82 mg/kg, route intravenous; conditions: in vivo
[25] = Clearance in rat at 1.06 mg/kg, iv; format: ADME, organism-based; design: dose 1.06 mg/kg, route intravenous; conditions: in vivo
[26] = Cmax in rat at 1.06 mg/kg, iv; format: ADME, organism-based; design: dose 1.06 mg/kg, route intravenous; conditions: in vivo
[27] = Oral bioavailability in rat at 1.06 mg/kg; format: ADME, organism-based; conditions: in vivo
[28] = Volume of distribution at steady state in rat at 1.06 mg/kg, iv; format: ADME, organism-based; design: dose 1.06 mg/kg, route intravenous; conditions: in vivo, read-out: Vdss
Rattus norvegicus [29] = experiment: Dose normalized AUC in rat at 1.06 mg/kg, iv; format: ADME, organism-based; design: dose 1.06 mg/kg, route intravenous; conditions: in vivo
[30] = Mean residence time in rat at 1.06 mg/kg, iv; format: ADME, organism-based; design: dose 1.06 mg/kg, route intravenous; conditions: in vivo

- IC50 [1]: 316 nM
- IC50 [2]: 32 nM
Compound: Cc1sc(Nc2ccc3c(c2)OCO3)nc1C(=O)N1CCc2ccccc2C1C (configuration not stated)

- IC50 [1]: 12600 nM
- IC50 [2]: 15800 nM
Compound: Cc1ccc(Nc2nc(C(=O)N3CCCCC3c3ccccc3)cs2)cc1 (configuration not stated)

- IC50 [1]: 2500 nM
- IC50 [2]: 1600 nM
Compound: COc1ccc(Nc2nc(C(=O)N3CCC(c4ccccc4)CC3)cs2)cc1

- Cmax [3]: 510 ng/mL
- Vdss (Rattus norvegicus [4]): 0.7 L/kg
- AUC/dose (Rattus norvegicus [5]): 0.85 kg·h/L
- bioavailability [6]: 100%
- IC50 [1]: 20000 nM
- IC50 [2]: 6300 nM
- MRT (Rattus norvegicus [7]): 96 min
Compound: Cc1sc(Nc2ccc(Cl)cc2F)nc1C(=O)N1CCc2ncccc2C1

- inhibition [8]: Active
- inhibition [9]: Active
- IC50 [1]: 800 nM
- IC50 [2]: 800 nM
Compound: CC1CCN(C(=O)c2csc(Nc3ccc(Cl)cc3)n2)CC1

- IC50 [1]: 316 nM
- IC50 [2]: 63 nM
Compound: CC1c2ccccc2CCN1C(=O)c1csc(Nc2ccc3c(c2)OCO3)n1 (configuration not stated)

- bioavailability [10]: 7%
- clearance [11]: 46 mL/min/kg
- Cmax [12]: 490 ng/mL
- MRT [13]: 24 min
- IC50 [1]: 32 nM
- IC50 [2]: 4 nM
- AUC/dose (Rattus norvegicus [14]): 0.3 kg·L·h
Compound: CC1CCCN(C(=O)c2nc(Nc3cc4c(cc3F)OCO4)sc2Cl)C1C (configuration not stated)

- IC50 [1]: > 25000 nM
- IC50 [2]: > 25000 nM
Compound: Cc1ccc(Nc2nc(C(=O)N3CCCC(c4ccccc4)C3)cs2)cc1 (configuration not stated)

- IC50 [1]: 630 nM
- IC50 [2]: 400 nM
Compound: Cc1ccc(Nc2nc(C(=O)N3CCC(C)CC3)cs2)cc1

- IC50 [1]: 800 nM
- IC50 [2]: 800 nM
Compound: COc1ccc(Nc2nc(C(=O)N3CCC(C)CC3)cs2)cc1

- IC50 [15]: 12500 nM
- IC50 [16]: 6300 nM
- bioavailability [17]: 64%
- AUC/dose (Rattus norvegicus [18]): 0.1 kg·L·h
- Cmax [20]: 120 ng/mL
- IC50 [21]: 25000 nM
- MRT [23]: 42 min
- IC50 [1]: 100 nM
- clearance [24]: 150 mL/min/kg
- IC50 [2]: 16 nM
Compound: Cc1sc(Nc2ccc(Cl)cc2F)nc1C(=O)N1CCC[C@H](C)[C@@H]1C
- IC50 [19]: 10000 nM
- IC50 [22]: 3300 nM

- clearance [25]: 9.3 mL/min/kg
- Cmax [26]: 1800 ng/mL
- bioavailability [27]: 65%
- Vd [28]: 0.7 L/kg
- AUC/dose (Rattus norvegicus [29]): 1.86 kg·h/L
- IC50 [1]: 10000 nM
- IC50 [2]: 1260 nM
- MRT [30]: 78 min
Compound: Cc1sc(Nc2ccc3c(c2)OCO3)nc1C(=O)N1CCc2ncccc2C1C (configuration not stated)
